Key:
A549 cells = test: Immunofluorescence microscopy of spindle microtubule organisation; assay type: cell-based, human; conditions: A549, positive control, compared to untreated cells
Method: Immunofluorescence microscopy was performed as previously described. A549 cells were grown on coverslips coated with gelatin (0.1%). […] After 24 h of the treatment nonspecific antibody binding sites were blocked using FBS following which cells were incubated with antitubulin antibody (1:500) at RT. Coverslips were washed in PBS, incubated in biotinylated antimouse secondary antibody (1:500; RT for 1 h) followed by Streptavidin-FITC (1:200). Finally, cells were mounted with DABCO and images were captured using Zeiss Fluorescence microscope and analyzed using Axio vision software. Colchicine treated cells were used as a positive control.

CEM cells = test: Intracellular ROS production (H2DCFDA, flow cytometry); assay type: cell-based, Human; conditions: 5 to 60 min
Method: Intracellular ROS generation in cells was assessed using the oxidation-sensitive fluorescent probe 2,7-dichlorodihydro fluorescein diacetate (H2DCFDA) as previously described. CEM cells were treated with SS28 (5 μM) for 5, 10, 15, 30 and 60 min, harvested, washed and incubated with H2DCFDA (30 min at 37 °C) and then fluorescence intensity was analyzed by flow cytometry. H2O2 was used as the positive control.

## COc1cc2c(c(OC)c1OC)-c1ccc(OC)c(=O)cc1[C@@H](NC(C)=O)CC2 [Colchicine, reference compound]
A549 cells
  effect on chromosomes and mitosis (immunofluorescence): chromosome condensation and metaphase arrest was observed

## OO [H2O2, reference compound]
CEM cells
  intracellular ROS production: distinct ROS production

From PMC5066224, “A Novel Resveratrol Based Tubulin Inhibitor Induces Mitotic Arrest and Activates Apoptosis in Cancer Cells” (Scientific Reports, 2016)
